Read-outs that look alike come from different tables or passages of the source. Marks after values point to notes of the source that are not given here.
Key:
L1210 = assay: Optimal dose (ED 95) in L1210 leukemia bearing mice; assay type: in vivo; settings: L1210 bearing mice DBA2
From the text: (§1) The antineoplastic activity of the compounds of the invention has been investigated testing the compounds of the chemical group "in vivo" against experimental rodent tumors such as the solid form of Ehrlich tumour (STE, originally mammary adenocarcinoma), tumor HK (also transplantable originally mammary adenocarcinoma), Krebs' ascites tumour (Kr2), S37 ascites sarcoma, Nemeth-Keller lymphoma (NK), all maintained in mice H, Gardner lymphosarcoma (LsG, maintained in mice C3H), P388 and/or L1210 leukemia (maintained in DBA2 mice), B16 metastasizing melanocarcinoma (maintained in C57B1/6 mice) and Yoshida ascites reticulosarcoma (Y, maintained in Wistar rats) in experiments according to Jelinek, V. [Neoplasma 12, 469 (1965); ibid 7, 146 (1960)] and in "in vitro" experiments using radioactive precursors of nucleic acids and proteins according to Miko, M. et al. [Cancer Res 39, 4242 (1979); Neoplasma 26, 449 (1979); ibid 16, 161 (1969)] with minor modifications [Mattern, J.: Studies on the Drug Sensitivity of Short Term Cultured Tumour Cell Suspensions. In "Human Tumours in Short Term Culture" (Dendy, P.P. ed.), p.301, Academic Press 1976]. The Cox's proportional-hazards model was used for survival evaluation and optimal dose calculation according to Carter, V.H. et al. [cf Cancer Res. 42, 2963 (1982)]. […]

L1210 leukemia cells = assay: Cytotoxicity: incorporation of [14C]amino-acid mixture into trichloroacetic acid-insoluble fraction of cells; assay type: cell-based, DBA2 mice; settings: Mus musculus; Tumor L1210; Precursor [U-14C]Amino-acid mixture
From the text: as §1

Ehrlich tumour = assay: Antitumour activity against solid form of Ehrlich tumour in mice (tumour weight, survival); assay type: in vivo, mice H; settings: the fifth day after tumour transplantation; for Tumour weight (T/C, %): weighed on the fourteenth day
From the text: The antineoplastic activity of the compounds of the invention has been investigated testing the compounds of the chemical group "in vivo" against experimental rodent tumors such as the solid form of Ehrlich tumour (STE, originally mammary adenocarcinoma), tumor HK (also transplantable originally mammary adenocarcinoma), Krebs' ascites tumour (Kr2), S37 ascites sarcoma, Nemeth-Keller lymphoma (NK), all maintained in mice H, Gardner lymphosarcoma (LsG, maintained in mice C3H), P388 and/or L1210 leukemia (maintained in DBA2 mice), B16 metastasizing melanocarcinoma (maintained in C57B1/6 mice) and Yoshida ascites reticulosarcoma (Y, maintained in Wistar rats) in experiments according to Jelinek, V. [Neoplasma 12, 469 (1965); ibid 7, 146 (1960)] and in "in vitro" experiments using radioactive precursors of nucleic acids and proteins according to Miko, M. et al. [Cancer Res 39, 4242 (1979); Neoplasma 26, 449 (1979); ibid 16, 161 (1969)] with minor modifications [Mattern, J.: Studies on the Drug Sensitivity of Short Term Cultured Tumour Cell Suspensions. In "Human Tumours in Short Term Culture" (Dendy, P.P. ed.), p.301, Academic Press 1976]. The Cox's proportional-hazards model was used for survival evaluation and optimal dose calculation according to Carter, V.H. et al. [cf Cancer Res. 42, 2963 (1982)].
Sixty female mice H weighing approximately 20 g were divided into three groups: one control group and two experimental groups of 20 animal each. A lethal dose of the 40 Ehrlich tumour homogenate was implanted subcutaneously to all the animals. The animals of test groups were treated using the compounds suspended in water. […] On the fourteenth day after the tumour transplantation, half of the animals in each group were killed by ether anaesthesia, tumours were removed and weighed. The remaining animals were left to monitor the time of death and survival time was followed. […] It was also observed that the treated animals survived longer than untreated control animals.

O=C1c2ccccc2-c2c1c1ccccc1c(=O)n2CCNCCO [I (X=2), 6-[2-(2-hydroxyethyl)aminoethyl]-5,11-dioxo-5,6-dihydro-11H-indeno[1,2-c]isoquinoline]
ED95 (L1210; Mus musculus, po, read-out: ED 95): 225 mg/kg
ED95 (L1210; p.o., dose per body surface): 675 mg/m^2
IC50 (L1210 leukemia cells): 78 µM
Survival time (T/C, %) (Ehrlich tumour; 200 mg/kg p.o. once): 111%
Tumour weight (T/C, %) (Ehrlich tumour; 200 mg/kg p.o. once): 79^a) %
Survival time (T/C, %) (Ehrlich tumour; 400 mg/kg p.o. once): 152^a) %
Tumour weight (T/C, %) (Ehrlich tumour; 400 mg/kg p.o. once): 31^b) %

Source: patent publication EP0643699B1, “6-(2-HYDROXYETHYLAMINOALKYL)-5,11-DIOXO-5,6-DIHYDRO-11H- INDENO[1,2-C]ISOQUINOLINES AND THEIR USE AS ANTINEOPLASTIC AGENTS” (priority 1991, dated 1993)
